Earlier results, collected in patent US7291720B2, “Use of sublethal concentrations of anti-invasin compounds to therapeutically or prophylactically treat fungal infections” (priority 2000, dated 2007).

Legend:
[1] = about half necessitated discontinuation of therapy
[2] = test system: susceptible isolate of C. albicans; details: in vitro

For `OC(Cn1cncn1)(Cn1cncn1)c1ccc(F)cc1F` [fluconazole], the “patients with adverse reactions, possibly related to the treatment” value [1] is listed as “over 5%” and the “concentration that reduces hyphal formation” value [2] is listed as 0.1 µg/mL.
